Experimental data as given in patent US8415469B2, “Compounds and methods for kinase modulation, and indications therefor” (Plexxikon Inc., priority 2005, dated 2013).

How the values were obtained:
Assay type in all cases: biochemical
[1] = molecular target: T1, Fms (Homo sapiens, UniProt P07333); assay: AlphaScreen kinase assay, Fms; settings: read-out: IC50, activity toward kinase Fms
T1 construct: purchased Upstate Biotechnology

[2] = molecular target: T2, B-Raf V600E (Homo sapiens, UniProt P15056, V600E); assay: AlphaScreen kinase assay, B-Raf V600E; settings: read-out: IC50, activity toward kinase B-Raf V600E
T2 construct: P4254. pFastBacBD-CDC37 BRAF D437-K722-X, V600E; His6 with pFastBac HT leader (TEV site) (N); made in house; host or cells: Sf9 (baculovirus; chaperone CDC37 co-expressed)

[3] = molecular target: T3, Flt1 (Homo sapiens, UniProt P17948); assay: AlphaScreen kinase assay, Flt1; settings: read-out: IC50, activity toward kinase Flt1
T3 construct: P1826.pETN6 BI-PTP FLT1 M799-D1165-X WT; His6 (N); made in house; host or cells: E. coli (PTP1B co-expressed)
T3 sequence (P17948 with tags, fused parts or gaps): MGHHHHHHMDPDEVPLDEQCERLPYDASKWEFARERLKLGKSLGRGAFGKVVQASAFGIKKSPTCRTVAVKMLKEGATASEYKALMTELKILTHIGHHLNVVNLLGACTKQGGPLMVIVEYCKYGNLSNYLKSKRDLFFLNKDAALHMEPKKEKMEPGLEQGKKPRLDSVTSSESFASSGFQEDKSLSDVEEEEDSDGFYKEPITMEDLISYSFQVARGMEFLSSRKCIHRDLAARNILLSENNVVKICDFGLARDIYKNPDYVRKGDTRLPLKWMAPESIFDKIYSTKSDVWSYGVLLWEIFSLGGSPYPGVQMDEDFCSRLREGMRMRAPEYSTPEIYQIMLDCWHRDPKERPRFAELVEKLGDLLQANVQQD

[4] = molecular target: T4, FGFR1 (Homo sapiens, UniProt P11362, C488A/C584S); assay: AlphaScreen kinase assay, FGFR1; settings: read-out: IC50, activity toward kinase FGFR
T4 construct: P1351.pET N6 BI-PTP FGFR A458-E765-X C488A, C584S; made in house; host or cells: E. coli (PTP1B co-expressed)

[5] = molecular target: T5, Kit (Homo sapiens, UniProt P10721); assay: AlphaScreen kinase assay, Kit; settings: read-out: IC50, activity toward kinase Kit
T5 construct: P1332.N6 BI PTP KIT M552-K948-X COD; His6 (N); made in house; host or cells: E. coli (PTP1B co-expressed)
T5 sequence (P10721 with tags, fused parts or gaps): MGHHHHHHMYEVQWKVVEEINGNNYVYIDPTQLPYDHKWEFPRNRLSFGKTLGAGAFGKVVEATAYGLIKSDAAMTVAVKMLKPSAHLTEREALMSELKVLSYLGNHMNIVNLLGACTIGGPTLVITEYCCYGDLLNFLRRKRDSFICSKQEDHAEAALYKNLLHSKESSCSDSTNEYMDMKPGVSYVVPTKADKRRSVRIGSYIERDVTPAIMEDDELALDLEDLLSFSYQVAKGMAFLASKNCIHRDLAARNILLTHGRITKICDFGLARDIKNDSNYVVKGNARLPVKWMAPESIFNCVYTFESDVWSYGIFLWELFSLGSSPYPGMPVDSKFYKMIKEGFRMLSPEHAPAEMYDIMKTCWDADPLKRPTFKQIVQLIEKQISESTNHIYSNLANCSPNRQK

T1 sequence (P07333 20-972): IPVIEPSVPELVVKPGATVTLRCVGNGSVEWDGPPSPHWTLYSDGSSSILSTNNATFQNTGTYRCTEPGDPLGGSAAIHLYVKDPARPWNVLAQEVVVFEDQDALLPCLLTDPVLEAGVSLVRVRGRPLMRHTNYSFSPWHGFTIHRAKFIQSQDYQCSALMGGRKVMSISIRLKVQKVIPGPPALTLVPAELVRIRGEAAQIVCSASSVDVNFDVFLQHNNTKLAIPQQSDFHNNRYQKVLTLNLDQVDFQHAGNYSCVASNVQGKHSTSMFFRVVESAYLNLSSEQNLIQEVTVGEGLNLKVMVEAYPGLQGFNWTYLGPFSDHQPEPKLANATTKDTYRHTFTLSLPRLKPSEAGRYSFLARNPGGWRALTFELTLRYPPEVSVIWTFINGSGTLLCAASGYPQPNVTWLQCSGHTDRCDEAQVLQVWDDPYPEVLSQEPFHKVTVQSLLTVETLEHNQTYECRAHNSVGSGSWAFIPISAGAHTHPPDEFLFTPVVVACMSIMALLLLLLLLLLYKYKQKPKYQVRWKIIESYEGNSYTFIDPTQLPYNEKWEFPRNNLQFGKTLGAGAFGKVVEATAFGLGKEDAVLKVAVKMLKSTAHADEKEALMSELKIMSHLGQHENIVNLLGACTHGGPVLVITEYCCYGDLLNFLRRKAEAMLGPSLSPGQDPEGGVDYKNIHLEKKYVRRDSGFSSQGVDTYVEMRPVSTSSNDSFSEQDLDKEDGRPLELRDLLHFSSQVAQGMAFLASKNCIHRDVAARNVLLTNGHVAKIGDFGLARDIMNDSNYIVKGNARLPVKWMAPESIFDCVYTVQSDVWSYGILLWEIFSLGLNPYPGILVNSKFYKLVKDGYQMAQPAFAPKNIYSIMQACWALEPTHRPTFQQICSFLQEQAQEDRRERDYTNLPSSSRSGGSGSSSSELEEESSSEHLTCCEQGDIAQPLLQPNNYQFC
T2 sequence (P15056 with tags, fused parts or gaps V600E): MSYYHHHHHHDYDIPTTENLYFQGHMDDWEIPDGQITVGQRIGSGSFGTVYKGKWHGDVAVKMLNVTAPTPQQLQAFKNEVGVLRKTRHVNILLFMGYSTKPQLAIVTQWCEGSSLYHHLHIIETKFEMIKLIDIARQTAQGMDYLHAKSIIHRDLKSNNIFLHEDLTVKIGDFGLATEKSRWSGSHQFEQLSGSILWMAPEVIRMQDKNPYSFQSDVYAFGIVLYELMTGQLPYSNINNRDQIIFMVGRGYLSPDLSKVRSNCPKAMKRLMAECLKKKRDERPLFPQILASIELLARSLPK
T4 sequence (P11362 458-765 C488A/C584S): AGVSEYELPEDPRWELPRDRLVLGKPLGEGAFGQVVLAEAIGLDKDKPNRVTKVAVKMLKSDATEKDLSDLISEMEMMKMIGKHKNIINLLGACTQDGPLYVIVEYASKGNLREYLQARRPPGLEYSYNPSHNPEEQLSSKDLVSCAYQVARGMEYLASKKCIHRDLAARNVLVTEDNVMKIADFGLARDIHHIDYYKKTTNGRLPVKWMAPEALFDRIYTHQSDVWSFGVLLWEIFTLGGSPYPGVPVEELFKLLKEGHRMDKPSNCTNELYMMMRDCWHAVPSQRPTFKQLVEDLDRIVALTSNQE

IC50 [1] [µM]	IC50 [2] [µM]	IC50 [3] [µM]	IC50 [4] [µM]	IC50 [5] [µM]	Compound
≤ 10	≤ 10	≤ 10			COc1cnc2[nH]cc(Cc3c(F)ccc(NC(=O)NC4CCCC4)c3F)c2c1 [Compound P-1572, 1-Cyclopentyl-3-[2,4-difluoro-3-(5-methoxy-1H-pyrrolo[2,3-b]pyridin-3-ylmethyl)-phenyl]-urea]
≤ 10	≤ 10	≤ 10			O=C(c1c(F)ccc(NC(=O)N2CCOCC2)c1F)c1c[nH]c2ncc(Cl)cc12 [Compound P-1606, Morpholine-4-carboxylic acid [3-(5-chloro-1H-pyrrolo[2,3-b]pyridine-3-carbonyl)-2,4-difluoro-phenyl]-amide]
≤ 10		≤ 10	≤ 10		O=C(Nc1ccc(F)c(Cc2c[nH]c3ncc(Cl)cc23)c1F)N1CCOCC1 [Compound P-1595, Morpholine-4-carboxylic acid [3-(5-chloro-1H-pyrrolo[2,3-b]pyridin-3-ylmethyl)-2,4-difluoro-phenyl]-amide]
≤ 10		≤ 10			CCCCNC(=O)Nc1ccc(F)c(Cc2c[nH]c3ncc(OC)cc23)c1F [Compound P-1571, 1-Butyl-3-[2,4-difluoro-3-(5-methoxy-1H-pyrrolo[2,3-b]pyridin-3-ylmethyl)-phenyl]-urea]
≤ 10		≤ 10	≤ 10		CCCCN(C)C(=O)Nc1ccc(F)c(Cc2c[nH]c3ncc(Cl)cc23)c1F [Compound P-1625, 1-Butyl-3-[3-(5-chloro-1H-pyrrolo[2,3-b]pyridin-3-ylmethyl)-2,4-difluoro-phenyl]-1-methyl-urea]
≤ 10		≤ 10			Clc1ccc(Nc2c[nH]c3ncccc23)cc1 [Compound P-1491, (4-Chloro-phenyl)-(1H-pyrrolo[2,3-b]pyridin-3-yl)-amine]
	≤ 10	≤ 10		≤ 10	O=C(c1ccc(Nc2ccccc2)nc1)c1c[nH]c2ncccc12 [Compound P-1160]
≤ 10		≤ 10			CS(=O)(=O)c1cccc(-c2cnc3[nH]cc(Cc4c(F)ccc(NC(=O)NC5CCCC5)c4F)c3c2)c1 [Compound P-1615, 1-Cyclopentyl-3-{2,4-difluoro-3-[5-(3-methanesulfonyl-phenyl)-1H-pyrrolo[2,3-b]pyridin-3-ylmethyl]-phenyl}-urea]
≤ 10		≤ 10			c1ccc(CNc2ccc(Cc3c[nH]c4ncccc34)cn2)cc1 [Compound P-0733]
≤ 10		≤ 10			O=C(c1ccc(NCc2ccc(C(F)(F)F)cc2)nc1)c1c[nH]c2ncccc12 [Compound P-0461]
≤ 10		≤ 10			O=C(c1ccc(NCc2ccc(F)cc2)nc1)c1c[nH]c2ncccc12 [Compound P-0491]
		≤ 10	≤ 10	≤ 10	CC(=O)Nc1cccc(-c2cnc3[nH]cc(C(=O)c4cccc(OC(F)F)c4)c3c2)c1 [Compound P-1424, N-{3-[3-(3-Difluoromethoxy-benzoyl)-1H-pyrrolo[2,3-b]pyridin-5-yl]-phenyl}-acetamide]
≤ 10	≤ 10	≤ 10			O=C(NCCN1CCOCC1)Nc1ccc(F)c(Cc2c[nH]c3ncc(Cl)cc23)c1F [Compound P-1594, 1-[3-(5-Chloro-1H-pyrrolo[2,3-b]pyridin-3-ylmethyl)-2,4-difluoro-phenyl]-3-(2-morpholin-4-yl-ethyl)-urea]
≤ 10		≤ 10			CCCCNC(=O)Nc1ccc(F)c(Cc2c[nH]c3ncc(Cl)cc23)c1F [Compound P-1587, 1-Butyl-3-[3-(5-chloro-1H-pyrrolo[2,3-b]pyridin-3-ylmethyl)-2,4-difluoro-phenyl]-urea]
≤ 10	≤ 10	≤ 10			Cc1nc(NCc2ccc(C(F)(F)F)cc2)ccc1Cc1c[nH]c2ncccc12 [Compound P-1112]
